Measured values published in US7312237B2, “Combination of epothilone analogs and chemotherapeutic agents for the treatment of prolilferative diseases” (Bristol-Myers Squibb Co., priority 2001, dated 2007).

Experiments:
[1] = tested on: tubulin isolated from calf brain; assay: Tubulin polymerization assay; format: biochemical
HCT-116 = assay: In vitro cytotoxicity (MTS assay), HCT-116; format: cell-based; conditions: Homo sapiens; HCT-116, 72 hour incubation
Procedure: HCT116 human carcinoma cell lines and HCT116/VM46 cells, a MDR variant, were maintained in McCoy's 5A medium (GIBCO) and 10% heat inactivated fetal bovine serum (GIBCO). A2780 human ovarian carcinoma cells and A2780Tax cells obtained from Dr. Antonio Fojo (NCI, Bethesda, Md.) were maintained in IMEM (GIBCO) and 10% fetal bovine serum (GIBCO).
(§1) The in vitro cytotoxicity was assessed in tumor cells by a tetrazolium-based colorimetric assay which takes advantage of the metabolic conversion of MTS (3-(4,5-dimethylthiazol-2-yl)-5-(3-carboxymethoxyphenyl)-2-(4-sulphenyl)-2H-tetrazolium, inner salt) to a reduced form that absorbs light at 492 nm. Cells were seeded 24 hr prior to drug addition. Following a 72 hour incubation at 37° C. with serially diluted compound, MTS, in combination with the electron coupling agent phenazine methosulfate, was added to the cells. The incubation was continued for 3 hours, then the absorbancy of the medium at 492 nm was measured with a spectrophotometer to obtain the number of surviving cells relative to control populations. The results are expressed as median cytotoxic concentrations (IC50 values).

MIP = assay: In vitro cytotoxicity (MTS assay), MIP; format: cell-based; conditions: MIP (MDR colon tumor line), 72 hour incubation; read-out: IC50
Procedure: as §1

[2] = tested on: Pat-7 human ovarian carcinoma; assay: In vivo antitumor testing, Pat-7 in nude mice
Procedure: (§2) All tumor implants for efficacy testing were subcutaneous (sc).
(§3) The MTD was frequently equivalent to OD. When death occurs, the day of death was recorded.
(§4) And, Log cell kill=T−C÷(3.32×TVDT)
This tumor model was established from a tumor biopsy of an ovarian cancer patient (Pat-7), who was initially responsive to TAXOL® treatment but ultimately developed resistance to it following nine courses of monotherapy with TAXOL®. Prior to treatment with TAXOL®, Pat-7 also received numerous other chemotherapeutic agents including carboplatin, cytoxan, VP-16, ifosfamide and altretamine. Tumor biopsy was taken following development of TAXOL® resistance.

[3] = tested on: Pat-7 human ovarian carcinoma; assay: In vivo antitumor testing, Pat-7 in nude rats; conditions: Expt. 15, nude rats, paclitaxel at optimal dose
Procedure: as §3, §4

[4] = tested on: A2780Tax human ovarian carcinoma; conditions: Expt. 12, IV paclitaxel at its MTD
Text: (§5) The following human tumors were used: A2780 ovarian, A2780Tax ovarian (established from cells obtained from Dr. Antonio Fojo, Medicine Branch, NCI, Bethesda, Md.), HCT116/VM46 colon, Pat-7 ovarian (established from a tumor biopsy provided by Dr. Thomas Hamilton, Fox Chase Cancer Center, Philadelphia, Pa.) from a patient who had developed resistance to TAXOL®). The murine fibrosarcoma M5076 was also employed.
The following tumors were passaged in the indicated host strain of mouse: murine M5076 fibrosarcoma (M5076) in C57Bl/6 mice; human A2780 and Pat-7 ovarian carcinomas, HCT116, HCT116/VM46 and LS174T colon carcinoma, Pat-21 breast carcinoma in nude mice. Tumor passage occurred biweekly for murine tumors and approximately every two to eight weeks for the various human tumor lines. With regard to efficacy testing, M5076 tumors were implanted in (C57Bl/6×DBA/2)F1 hybrid mice, and human tumors were implanted in nude mice. All tumor implants for efficacy testing were subcutaneous (sc). […]
(§6) Antitumor activity was evaluated at the maximum tolerated dose (MTD) which is defined as the dose level immediately […] which excessive toxicity (i.e. more than one death) occurred. […] When death occurs, the day of death was recorded. […]
(§7) To estimate tumor cell kill, the tumor volume doubling time was first calculated with the formula: […]

[5] = tested on: HCT116/VM46 human colon carcinoma; assay: in vivo
Text: as §5
(§8) The following tumors were passaged in the indicated host strain of mouse: murine M5076 fibrosarcoma (M5076) in C57Bl/6 mice; human A2780 and Pat-7 ovarian carcinomas, HCT116, HCT116/VM46 and LS174T colon carcinoma, Pat-21 breast carcinoma in nude mice. Tumor passage occurred biweekly for murine tumors and approximately every two to eight weeks for the various human tumor lines. With regard to efficacy testing, M5076 tumors were implanted in (C57Bl/6×DBA/2)F1 hybrid mice, and human tumors were implanted in nude mice. All tumor implants for efficacy testing were subcutaneous (sc).
(§9) The required number of animals needed to detect a meaningful response were pooled at the start of the experiment and each was given a subcutaneous implant of a tumor fragment (·50 mg) with a 13-gauge trocar. For treatment of early-stage tumors, the animals were again pooled before distribution to the various treatment and control groups. For treatment of animals with advanced-stage disease, tumors were allowed to grow to the predetermined size window (tumors outside the range were excluded) and animals were evenly distributed to various treatment and control groups. Treatment of each animal was based on individual body weight. Treated animals were checked daily for treatment related toxicity/mortality. Each group of animals was weighed before the initiation of treatment (Wt1) and then again following the last treatment dose (Wt2). The difference in body weight (Wt2−Wt1) provides a measure of treatment-related toxicity.
(§10) Tumor weights (mg) were estimated from the formula: Tumor weight=(length×width^2)÷2
Antitumor activity was evaluated at the maximum tolerated dose (MTD) which is defined as the dose level immediately […] which excessive toxicity (i.e. more than one death) occurred. […] When death occurs, the day of death was recorded.
Tumor response end-point was expressed in terms of tumor growth delay (T-C value), defined as the difference in time (days) required for the treated tumors (T) to reach a predetermined target size compared to those of the control group (C).
To estimate tumor cell kill, the tumor volume doubling time was first calculated with the formula:
TVDT=Median time (days) for control tumors to reach target size−Median time (days) for control tumors to reach half the target size
HCT116/VM46 is an MDR-resistant colon carcinoma developed from the sensitive HCT116 parent line.

Pat-21 breast carcinoma = tested on: Pat-21 breast carcinoma
Text: as §8, §9, §10, §6, §7

[6] = tested on: M5076 murine fibrosarcoma; assay: In vivo antitumor testing, M5076 murine sarcoma; design: species or system mice; conditions: optimal schedule
Procedure: The murine fibrosarcoma M5076 was also employed.
The human tumors were maintained in Balb/c nu/nu nude mice. M5076 was maintained in C57BL/6 mice. Tumors were propagated as subcutaneous transplants in the appropriate mouse strain using tumor fragments obtained from donor mice.
as §2, §3, §4

[7] = tested on: A2780 human ovarian carcinoma; assay: In vivo antitumor testing, A2780 in nude mice
Procedure: as §2, §3, §4

[8] = tested on: A2780 human ovarian carcinoma; assay: In vivo antitumor testing, A2780 in nude rats; conditions: nude rats, IV paclitaxel
Procedure: as §3, §4
A2780 grown in nude rats was also utilized.

[9] = tested on: LS174T human colon carcinoma; assay: In vivo antitumor testing, LS174T xenograft; design: species or system nude mice; conditions: Expt. R578, iv paclitaxel 36 mg/kg/inj every 2 days for 5 doses
Procedure: as §2, §3, §4

## C/C(=C\c1csc(C)n1)[C@@H]1C[C@@H]2O[C@@H]2CCC[C@H](C)[C@H](O)[C@@H](C)C(=O)C(C)(C)[C@@H](O)CC(=O)O1 [Epothilone A]
[1]
  Ratio of Polymerization Potency of Analog/Paclitaxel: 0.4

## CC(=O)O[C@H]1C(=O)[C@@]2(C)[C@H]([C@H](OC(=O)c3ccccc3)[C@]3(O)C[C@H](OC(=O)[C@H](O)[C@@H](NC(=O)c4ccccc4)c4ccccc4)C(C)=C1C3(C)C)[C@]1(OC(C)=O)CO[C@@H]1C[C@@H]2O [Paclitaxel, reference compound]
HCT-116
  IC50: 2.1 nM
MIP
  IC50: > 112 nM
[2]; Expt. 8, IV paclitaxel at optimal dose (24-36 mg/kg/inj) and schedule
  Paclitaxel LCK: 1.3
[2]; Expt. 9, IV paclitaxel at optimal dose (24-36 mg/kg) and schedule
  Paclitaxel (IV) LCK: 1.2
[2]; Expt. R403, IV paclitaxel at optimal dose (24-36 mg/kg/inj) and schedule
  Paclitaxel LCK: 0.6
[3]
  Paclitaxel LCK: 2.2
[3]; listed as PACLITAXEL
  Paclitaxel cures/total: (0/6)
[3]; listed as paclitaxel
  Paclitaxel cures/total: no cures
[4]
  Paclitaxel LCK: 0.8
[5]; Expt. 32, IV paclitaxel at its MTD
  Paclitaxel LCK: 0.4
[5]; Expt. 33, IV paclitaxel at its MTD
  Paclitaxel LCK: 0.7
[5]; paclitaxel at its MTD
  median LCK of 12 consecutive studies: 0.35 LCK
Pat-21 breast carcinoma; Expt. R667, paclitaxel at MTD of 36 mg/kg/inj
  Paclitaxel LCK: 0.3
Pat-21 breast carcinoma; paclitaxel, two courses of 3 doses every 4 days
  MTD: 36 mg/kg/inj
[6]; Expt. 159, IV paclitaxel
  Paclitaxel LCK: 0.1
[6]; Expt. 162, IV paclitaxel
  Paclitaxel LCK: 0.5
[7]; Expt. 89, IV paclitaxel at optimal dose
  Paclitaxel LCK: 2
[7]; Expt. 92, IV paclitaxel at optimal dose
  Paclitaxel LCK: 3.5
[8]
  cures: 5 of 7
[9]
  Paclitaxel LCK: 2.0

## C/C(=C\c1csc(C)n1)[C@@H]1C[C@@H]2O[C@]2(C)CCC[C@H](C)[C@H](O)[C@@H](C)C(=O)C(C)(C)[C@@H](O)CC(=O)O1 [Epothilone B]
[1]
  Ratio of Polymerization Potency of Analog/Paclitaxel: 0.3
